Measurements published in PMC7238120, “Strong and Selective Inhibitory Effects of the Biflavonoid Selamariscina A against CYP2C8 and CYP2C9 Enzyme Activities in Human Liver Microsomes” (Pharmaceutics, 2020).
Where two headings read alike, the source gives them in different places.

Molecular target: T1, CYP2B6 (Homo sapiens, UniProt P20813)
T1 construct: incubation mixtures containing pooled human liver microsomes (HLMs, XTreme 200, XenoTech); tissue XenoTech XTreme 200; host or cells: pooled human liver microsomes
T1 sequence (P20813 1-491): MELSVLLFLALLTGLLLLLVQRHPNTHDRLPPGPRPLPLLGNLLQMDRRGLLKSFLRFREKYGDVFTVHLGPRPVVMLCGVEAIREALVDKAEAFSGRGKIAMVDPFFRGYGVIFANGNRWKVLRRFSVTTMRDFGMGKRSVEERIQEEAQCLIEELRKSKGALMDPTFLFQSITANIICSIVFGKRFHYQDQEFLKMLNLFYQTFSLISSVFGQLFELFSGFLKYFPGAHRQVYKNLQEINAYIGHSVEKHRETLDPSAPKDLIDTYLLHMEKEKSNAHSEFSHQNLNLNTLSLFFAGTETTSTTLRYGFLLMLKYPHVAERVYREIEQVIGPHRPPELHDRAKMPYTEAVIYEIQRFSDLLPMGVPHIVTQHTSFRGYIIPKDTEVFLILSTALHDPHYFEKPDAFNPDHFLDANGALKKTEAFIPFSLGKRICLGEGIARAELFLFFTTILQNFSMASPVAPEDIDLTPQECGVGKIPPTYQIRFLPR
Assay: Inhibition of CYP2B6-catalyzed bupropion hydroxylation in pooled human liver microsomes
Assay type: in vitro ADME
Description: The inhibitory potential of the five biflavonoids on the metabolism of nine P450 probe substrates was evaluated using previously developed methods with minor modifications. Biflavonoids were dissolved in methanol. The final concentration of methanol in the incubation mixture was 1.0% (v/v). We used these P450 probe substrates: phenacetin for CYP1A2, coumarin for CYP2A6, bupropion for CYP2B6, amodiaquine for CYP2C8, diclofenac for CYP2C9, omeprazole for CYP2C19, dextromethorphan for CYP2D6, chlorzoxazone for CYP2E1 and midazolam for CYP3A (Table 1). […] The reaction was stopped by adding 50 μL of ice-cold acetonitrile containing 7 nM trimipramine (internal standard, IS). After centrifugation at 18,000 g (5 min, 4 °C), aliquots of supernatants were analyzed by LC-MS/MS (Shimadzu LCMS 8060 system, Shimadzu, Kyoto, Japan). All microsomal incubations were conducted in triplicate. We used HLMs to determine the mechanisms and constants (Ki values) for […] A inhibition of CYP1A2, CYP2B6, CYP2C8, CYP2C9 and CYP3A. […] The substrates were used at concentrations approximately near to their respective Km values. […] The other conditions were the same as in the cytochrome P450 inhibition study. […] Phenomenex, Torrance, CA, USA) and analyzed using a Shimadzu LCMS 8060 triple-quadrupole mass spectrometer coupled with a Nexera X2 ultra high-performance liquid chromatography system (Shimadzu, Kyoto, Japan) equipped with an electrospray ionization interface. The mobile phase consisted of 0.1% formic acid in water (A) and 0.1% formic acid in acetonitrile (B). […] The flow rate was 0.2 mL/min. Electrospray ionization was performed in positive-ion mode at 4000 V or in negative-ion mode at -3500 V. […] Quantitation was conducted in selected reaction monitoring (SRM) modes with the precursor-to-product ion transition for each metabolite (Table 1 and Table 2). We analyzed the data with Shimadzu LabSolution LC-MS software. The IC50 values were calculated by WinNonlin software (Pharsight, Mountain View, CA, USA). The type of inhibition and the apparent kinetic parameters for inhibitory activity (Ki) were determined by following several criteria: visual inspection of Dixon plots, Lineweaver-Burk double reciprocal plots, and secondary plots of Lineweaver-Burk plots versus biflavonoid concentrations, the size of the sum of squares of the residuals, Akaike Information Criteria values, the S.E. and 95% confidence interval of the parameter estimates from the nonlinear regression analysis using the WinNonlin software. The models tested included competitive, competitive partial, noncompetitive, noncompetitive partial, uncompetitive, uncompetitive partial, and mixed-type inhibition.

[1] = substrate bupropion 50 µM, pooled HLMs, read-out: IC50, P450 2B6

Row | IC50 [1] [µM] | Compound | also measured
1 | 5.3 | O=C1CC(c2cc(-c3c(O)ccc4c(=O)cc(-c5ccc(O)cc5)oc34)c(O)cc2O)Oc2cc(O)cc(O)c21 (stereo not drawn) [selamariscina A] | Mode of Inhibition, CYP2B6 bupropion (HLMs): Noncompetitive; Ki (HLMs, average ± standard error, triplicate): 7.9 ± 1.1 µM
2 | 6.4 | O=c1cc(-c2ccc(O)c(-c3c(-c4ccc(O)cc4)oc4cc(O)cc(O)c4c3=O)c2)oc2cc(O)cc(O)c12 [taiwaniaflavone] | –

More lines, now with the values behind:

Row | Compound | IC50 [1] [µM] | also measured
3 | O=c1cc(-c2ccc(O)c(-c3c(O)cc(O)c4c(=O)cc(-c5ccc(O)cc5)oc34)c2)oc2cc(O)cc(O)c12 [amentoflavone] | – | IC50: 7.1 µM
4 | O=c1cc(-c2ccc(O)cc2)oc2c(-c3c(O)cc(O)c4c(=O)cc(-c5ccc(O)cc5)oc34)c(O)cc(O)c12 [cupressuflavone] | 6.7 | –
5 | CC(C)(O)c1ccccc1CC[C@@H](SCC1(CC(=O)O)CC1)c1cccc(/C=C/c2ccc3ccc(Cl)cc3n2)c1 [montelukast, reference compound] | > 50 | inhibition at 10 min, 5 µM (human, pooled human liver microsomes, probe bupropion, inhibitor 5 μM, pooled HLMs): 20.4%
6 | O=c1cc(-c2ccc(O)c(-c3c(O)cc4oc(-c5ccc(O)cc5)cc(=O)c4c3O)c2)oc2cc(O)cc(O)c12 [robustaflavone] | 5.7 | –
